According to ChEMBL document CHEMBL4382254, “Design, synthesis, structure-activity relationships and mechanism of action of new quinoline derivatives as potential antitumor agents” (Eur J Med Chem, 2019):

How the values were obtained:
HepG2 = assay: Cytotoxicity against human HepG2 cells after 48 hrs by MTT assay; format: functional, cell-based; details: HepG2, 48 h
NCI-H1650 = assay: Cytotoxicity against human NCI-H1650 cells after 48 hrs by MTT assay; format: functional, cell-based; details: NCI-H1650, 48 h
DLD-1 = assay: Cytotoxicity against human DLD1 cells after 48 hrs by MTT assay; format: functional, cell-based; details: DLD-1, 48 h
SK-OV-3 = assay: Cytotoxicity against human SKOV3 cells after 48 hrs by MTT assay; format: functional, cell-based; details: SK-OV-3, 48 h
RKO = assay: Cytotoxicity against human RKO cells after 48 hrs by MTT assay; format: functional, cell-based
BGC-823 = assay: Cytotoxicity against human BGC823 cells after 48 hrs by MTT assay; format: functional, cell-based; details: BGC-823, 48 h
HCT-116 = assay: Cytotoxicity against human HCT116 cells after 48 hrs by MTT assay; format: functional, cell-based; details: HCT-116, 48 h
[1] = Solubility of the compound in water; format: physicochemical

Compound: Oc1ccnc2cc(Cl)ccc12
- IC50 (HepG2): > 10000 nM
- IC50 (NCI-H1650): > 10000 nM
- IC50 (DLD-1): > 10000 nM
- IC50 (SK-OV-3): > 10000 nM
- IC50 (RKO): > 10000 nM
- IC50 (BGC-823): > 10000 nM
- IC50 (HCT-116): > 10000 nM

Compound: CN(C)CCCNc1ccnc2cc(OCc3ccc(F)cc3)ccc12
- IC50 (HepG2): 1570 nM
- IC50 (NCI-H1650): 940 nM
- IC50 (DLD-1): 2540 nM
- solubility [1]: > 10000 µg/mL
- IC50 (SK-OV-3): 1280 nM
- IC50 (RKO): 1230 nM
- IC50 (BGC-823): 490 nM
- IC50 (HCT-116): 740 nM

Compound: CC(C)COc1ccc2c(Cl)ccnc2c1
- IC50 (HepG2): 2250 nM
- IC50 (NCI-H1650): 2100 nM
- IC50 (DLD-1): 3100 nM
- IC50 (SK-OV-3): 3190 nM
- IC50 (RKO): 2680 nM
- IC50 (BGC-823): 3030 nM
- IC50 (HCT-116): 2490 nM

Compound: CC(C)Oc1ccc2c(Cl)ccnc2c1
- IC50 (HepG2): 2050 nM
- IC50 (NCI-H1650): 2310 nM
- IC50 (DLD-1): 3240 nM
- IC50 (SK-OV-3): 3060 nM
- IC50 (RKO): 2690 nM
- IC50 (BGC-823): 2630 nM
- IC50 (HCT-116): 2590 nM

Compound: CCCCCCOc1ccc2c(NCCN(C)C)ccnc2c1
- IC50 (HepG2): 1370 nM
- IC50 (NCI-H1650): 930 nM
- IC50 (DLD-1): 1870 nM
- solubility [1]: > 10000 µg/mL
- IC50 (SK-OV-3): 1860 nM
- IC50 (RKO): 1120 nM
- IC50 (BGC-823): 1090 nM
- IC50 (HCT-116): 850 nM

Compound: Clc1ccnc2cc(OCCCc3ccccc3)ccc12
- IC50 (HepG2): 1780 nM
- IC50 (NCI-H1650): 630 nM
- IC50 (DLD-1): 2140 nM
- IC50 (SK-OV-3): 3610 nM
- IC50 (RKO): 1420 nM
- IC50 (BGC-823): 2370 nM
- IC50 (HCT-116): 800 nM

Compound: CCCCOc1ccc2c(Cl)ccnc2c1
- IC50 (HepG2): 2640 nM
- IC50 (NCI-H1650): 2570 nM
- IC50 (DLD-1): 3780 nM
- IC50 (SK-OV-3): 4130 nM
- IC50 (RKO): 3050 nM
- IC50 (BGC-823): 3610 nM
- IC50 (HCT-116): 2740 nM

Compound: CN(C)CCNc1ccnc2cc(OCc3ccccc3)ccc12
- IC50 (HepG2): 3120 nM
- IC50 (NCI-H1650): 1620 nM
- IC50 (DLD-1): 2140 nM
- solubility [1]: > 10000 µg/mL
- IC50 (SK-OV-3): 2350 nM
- IC50 (RKO): 2350 nM
- IC50 (BGC-823): 1250 nM
- IC50 (HCT-116): 1980 nM

Compound: Clc1ccnc2cc(OCCc3ccccc3)ccc12
- IC50 (HepG2): 3310 nM
- IC50 (NCI-H1650): 2300 nM
- IC50 (DLD-1): 3380 nM
- IC50 (SK-OV-3): 2010 nM
- IC50 (RKO): 2560 nM
- IC50 (BGC-823): 2010 nM
- IC50 (HCT-116): 2180 nM

Compound: CCOc1ccc2c(Cl)ccnc2c1
- IC50 (HepG2): 2660 nM
- IC50 (NCI-H1650): 3340 nM
- IC50 (DLD-1): 2750 nM
- IC50 (SK-OV-3): 3460 nM
- IC50 (RKO): 3870 nM
- IC50 (BGC-823): 3910 nM
- IC50 (HCT-116): 3160 nM

Compound: C=CCOc1ccc2c(NCCN(C)C)ccnc2c1
- IC50 (HepG2): 1660 nM
- IC50 (NCI-H1650): 930 nM
- IC50 (DLD-1): 1530 nM
- solubility [1]: > 10000 µg/mL
- IC50 (SK-OV-3): 1560 nM
- IC50 (RKO): 1270 nM
- IC50 (BGC-823): 1360 nM
- IC50 (HCT-116): 860 nM

Compound: CCCCCCCCOc1ccc2c(Cl)ccnc2c1
- IC50 (HepG2): 2640 nM
- IC50 (NCI-H1650): 3240 nM
- IC50 (DLD-1): 4500 nM
- IC50 (SK-OV-3): 4300 nM
- IC50 (RKO): 3640 nM
- IC50 (BGC-823): 4300 nM
- IC50 (HCT-116): 2820 nM

Compound: CCOc1ccc2c(NCCN(C)C)ccnc2c1
- IC50 (HepG2): 5680 nM
- IC50 (NCI-H1650): 3490 nM
- IC50 (DLD-1): 6240 nM
- solubility [1]: > 10000 µg/mL
- IC50 (SK-OV-3): 4620 nM
- IC50 (RKO): 3650 nM
- IC50 (BGC-823): 2520 nM
- IC50 (HCT-116): 2570 nM

Compound: C=CCOc1ccc2c(Cl)ccnc2c1
- IC50 (HepG2): 2770 nM
- IC50 (NCI-H1650): 2280 nM
- IC50 (DLD-1): 2890 nM
- IC50 (SK-OV-3): 4030 nM
- IC50 (RKO): 2460 nM
- IC50 (BGC-823): 2930 nM
- IC50 (HCT-116): 2570 nM

Compound: CCCCCCOc1ccc2c(Cl)ccnc2c1
- IC50 (HepG2): 2420 nM
- IC50 (NCI-H1650): 2080 nM
- IC50 (DLD-1): 2660 nM
- IC50 (SK-OV-3): > 10000 nM
- IC50 (RKO): 2720 nM
- IC50 (BGC-823): 2380 nM
- IC50 (HCT-116): 2440 nM

Compound: COc1ccc2c(Cl)ccnc2c1
- IC50 (HepG2): 6070 nM
- IC50 (NCI-H1650): 8160 nM
- IC50 (DLD-1): > 10000 nM
- IC50 (SK-OV-3): > 10000 nM
- IC50 (RKO): 9650 nM
- IC50 (BGC-823): > 10000 nM
- IC50 (HCT-116): 8820 nM

Compound: Fc1ccc(COc2ccc3c(Cl)ccnc3c2)cc1
- IC50 (HepG2): 3010 nM
- IC50 (NCI-H1650): 2230 nM
- IC50 (DLD-1): 3230 nM
- IC50 (SK-OV-3): 2780 nM
- IC50 (RKO): 1980 nM
- IC50 (BGC-823): 2780 nM
- IC50 (HCT-116): 2070 nM

Compound: C=CCOc1ccc2c(NCCCN(C)C)ccnc2c1
- IC50 (HepG2): 3990 nM
- IC50 (NCI-H1650): 3120 nM
- IC50 (DLD-1): 5180 nM
- solubility [1]: > 10000 µg/mL
- IC50 (SK-OV-3): 4250 nM
- IC50 (RKO): 3560 nM
- IC50 (BGC-823): 6680 nM
- IC50 (HCT-116): 2100 nM

Compound: Clc1ccnc2cc(OCc3ccccc3)ccc12
- IC50 (HepG2): 2680 nM
- IC50 (NCI-H1650): 2720 nM
- IC50 (DLD-1): 3270 nM
- IC50 (SK-OV-3): 5170 nM
- IC50 (RKO): 2410 nM
- IC50 (BGC-823): 5170 nM
- IC50 (HCT-116): 2470 nM

Compound: CCOc1ccc2c(NCCCN(C)C)ccnc2c1
- IC50 (HepG2): 5860 nM
- IC50 (NCI-H1650): 3830 nM
- IC50 (DLD-1): 8540 nM
- solubility [1]: > 10000 µg/mL
- IC50 (SK-OV-3): 6780 nM
- IC50 (RKO): 5240 nM
- IC50 (BGC-823): 9810 nM
- IC50 (HCT-116): 3380 nM
